Test results from patent US6545002B1 (University of Virginia Patent Foundation, priority 1999, dated 2003).
Where two headings read alike, the source gives them in different places.

Columns and labels:
[1] = molecular target: T1, human A3 receptors (hA3) (Homo sapiens, UniProt P0DMS8); test: Displacement of [125I]ABA binding at human A3 receptors expressed in HEK-293 cells
T1 construct: expressed in transfected cells; host or cells: HEK-293
T1 sequence (P0DMS8 1-318): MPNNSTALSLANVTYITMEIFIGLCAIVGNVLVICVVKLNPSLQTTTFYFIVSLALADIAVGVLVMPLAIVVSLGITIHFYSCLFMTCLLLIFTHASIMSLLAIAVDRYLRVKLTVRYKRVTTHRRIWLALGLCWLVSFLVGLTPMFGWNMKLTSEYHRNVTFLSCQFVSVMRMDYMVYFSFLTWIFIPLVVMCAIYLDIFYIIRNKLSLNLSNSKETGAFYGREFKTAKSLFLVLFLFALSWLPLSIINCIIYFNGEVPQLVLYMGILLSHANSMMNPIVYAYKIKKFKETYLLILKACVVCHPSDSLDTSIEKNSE

[2] = molecular target: T2, human A2B receptors (hA2B) (Homo sapiens, UniProt P29275); test: Radioligand binding ([125I]ABOPX / [3H]ZM241385) at human A2B receptors expressed in HEK-293 cells; conditions: for rA1/hA2B: Ki ratio
T2 construct: expressed in transfected cells; host or cells: HEK-293 (HEK-A2B, G418-selected)
T2 sequence (P29275 1-332): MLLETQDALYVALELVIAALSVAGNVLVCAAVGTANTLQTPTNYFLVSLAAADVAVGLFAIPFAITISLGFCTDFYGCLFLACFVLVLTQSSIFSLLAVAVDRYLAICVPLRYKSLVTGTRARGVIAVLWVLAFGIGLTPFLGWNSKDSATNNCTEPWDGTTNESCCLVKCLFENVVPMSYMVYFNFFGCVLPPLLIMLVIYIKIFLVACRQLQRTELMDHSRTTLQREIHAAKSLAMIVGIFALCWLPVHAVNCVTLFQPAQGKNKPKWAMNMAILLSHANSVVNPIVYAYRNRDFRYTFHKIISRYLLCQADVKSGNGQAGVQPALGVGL

[3] = molecular target: T3, rat A2A receptors (rA2A) (Rattus norvegicus, UniProt P30543); test: Displacement of [3H]CGS 21680 binding in rat striatal membranes
T3 construct: to A2A receptors from rat striatal membranes was performed as described; from tissue; host or cells: rat striatal membranes
Method: (§1) Bruns, R. F. et al., Naunyn-Schmiedeberg's Arch. […] Binding of [^3H]R-N^6-phenylisopropyladenosine. Schwabe, U. et al., Naunyn-Schmiedeberg's Arch. […] (Dupont NEN, Boston, Mass.) to A2A receptors from rat striatal membranes was performed as described. […] All non-radioactive compounds were initially dissolved in DMSO, and diluted with buffer to the final concentration, where the amount of DMSO never exceeded 2%. Incubations were terminated by rapid filtration over Whatman GF/B filters, using a Brandell cell harvester (Brandell, Gaithersburg, Md.). The tubes were rinsed three times with 3 mL buffer each.
(§2) At least six different concentrations of competitor, spanning 3 orders of magnitude adjusted appropriately for the IC50 of each compound, were used. IC50 values, calculated with the nonlinear regression method implemented in (Graph-Pad Prism, San Diego, Calif.), were converted to apparent Ki values as described. Linden, J., J. Cycl. Nucl.

[4] = molecular target: T4, recombinant human A1 receptors (hA1) (Homo sapiens, UniProt P30542); test: Radioligand binding ([3H]CPX) at recombinant human A1 receptors in HEK-293 cells
T4 sequence (P30542 1-326): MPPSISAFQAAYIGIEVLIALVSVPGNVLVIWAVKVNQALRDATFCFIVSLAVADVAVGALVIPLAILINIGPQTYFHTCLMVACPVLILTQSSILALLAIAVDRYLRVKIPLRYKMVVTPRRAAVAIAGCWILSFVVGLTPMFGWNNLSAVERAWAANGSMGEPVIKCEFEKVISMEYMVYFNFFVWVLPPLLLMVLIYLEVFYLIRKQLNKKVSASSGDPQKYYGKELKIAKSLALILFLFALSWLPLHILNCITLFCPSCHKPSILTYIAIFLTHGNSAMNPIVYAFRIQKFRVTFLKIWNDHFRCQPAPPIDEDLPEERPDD

[5] = molecular target: recombinant human A2A receptors (hA2A) (Homo sapiens, UniProt P29274); test: Radioligand binding (125I-ZM241385) at recombinant human A2A receptors in HEK-293 cells
[6] = molecular target: T5, rat A1 receptors (rA1) (Rattus norvegicus, UniProt P25099); test: Displacement of [3H]R-PIA binding in rat brain (cerebral cortical) membranes
T5 construct: to A1 receptors from rat cerebral cortical membranes; from tissue; host or cells: rat cerebral cortical (brain) membranes
T5 sequence (P25099 1-326): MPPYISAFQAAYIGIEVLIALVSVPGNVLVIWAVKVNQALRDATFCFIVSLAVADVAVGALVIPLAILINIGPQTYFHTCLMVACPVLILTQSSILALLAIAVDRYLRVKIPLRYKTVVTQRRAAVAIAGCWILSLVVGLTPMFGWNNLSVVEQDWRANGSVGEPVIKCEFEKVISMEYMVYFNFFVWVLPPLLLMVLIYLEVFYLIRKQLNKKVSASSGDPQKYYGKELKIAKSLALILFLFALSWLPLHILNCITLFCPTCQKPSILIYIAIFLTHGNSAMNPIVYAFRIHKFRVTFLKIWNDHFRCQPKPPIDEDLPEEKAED
Method: as §1, §2

[7] = Table 2, read-out: hA3 Ki or IC50
[8] = Table 2, read-out: hA2B Ki or IC50
[9] = Table 2, read-out: rA2A Ki or IC50
[10] = read-out: hA1 Ki or IC50, Table 2
[11] = read-out: hA2A Ki or IC50, Table 2
[12] = Table 2, read-out: rA1 Ki or IC50
[13] = read-out: Ki value at human A2B receptors
[14] = Table 4, footnote a: [125I]ABA, read-out: hA3 Ki (value marked ^a)
[15] = Table 4, footnote a: [125I]-ABOPX, read-out: hA2B Ki (value marked ^a) (converted)
[16] = Table 4, unmarked value, first of two binding assays, read-out: hA2B Ki
[17] = read-out: hA1 Ki, values marked (h)^a, Table 4, vs [3H]CPX, HEK-293
[18] = read-out: hA2A Ki, values marked (h)^a, Table 4, vs [125I]ZM241385, HEK-293

Sequence of recombinant human A2A receptors (hA2A) (P29274 whole entry): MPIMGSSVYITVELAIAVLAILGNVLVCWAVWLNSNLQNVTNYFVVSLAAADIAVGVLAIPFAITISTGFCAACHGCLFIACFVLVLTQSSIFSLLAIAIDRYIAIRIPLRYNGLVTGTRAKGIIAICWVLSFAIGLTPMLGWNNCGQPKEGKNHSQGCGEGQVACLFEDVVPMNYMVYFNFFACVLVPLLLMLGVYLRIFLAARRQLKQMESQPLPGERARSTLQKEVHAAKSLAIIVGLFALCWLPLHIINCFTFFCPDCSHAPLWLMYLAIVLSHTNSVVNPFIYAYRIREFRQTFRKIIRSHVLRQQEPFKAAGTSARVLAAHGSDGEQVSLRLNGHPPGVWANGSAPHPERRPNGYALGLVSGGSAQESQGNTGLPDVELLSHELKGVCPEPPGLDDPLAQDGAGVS
T3 sequence (P30543 whole entry): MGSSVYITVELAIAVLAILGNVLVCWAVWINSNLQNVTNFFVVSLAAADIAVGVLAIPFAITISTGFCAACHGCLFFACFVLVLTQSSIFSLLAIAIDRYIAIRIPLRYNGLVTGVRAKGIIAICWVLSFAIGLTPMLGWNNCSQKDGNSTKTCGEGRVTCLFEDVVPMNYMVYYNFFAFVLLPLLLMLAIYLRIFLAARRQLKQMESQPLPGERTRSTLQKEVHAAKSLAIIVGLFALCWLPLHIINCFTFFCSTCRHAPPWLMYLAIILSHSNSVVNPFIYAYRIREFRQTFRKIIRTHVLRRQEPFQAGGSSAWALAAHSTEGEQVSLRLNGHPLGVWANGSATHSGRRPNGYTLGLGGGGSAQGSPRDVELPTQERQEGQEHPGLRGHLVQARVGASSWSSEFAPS

SMILES | Ki [1, 7] | Ki [2, 8] | Ki [3, 9] | Ki [4, 10] | Ki [5, 11] | melting point | Ki [6, 12] | other results
CCCn1c(=O)c2[nH]c(-c3ccc(OCC(=O)Nc4ccccc4)cc3)nc2n(CCC)c1=O [Compound 12, 8-[4-[(Phenylcarbamoylmethyl)oxy]phenyl]-1,3-di-(n-propyl)-xanthine] | 137 ± 54 nM | 1.48 ± 0.63 nM | 45.6 ± 1.4 nM | 40.1 ± 5.1 nM | 25.8 ± 4.5 nM | 301 to 302 °C | – | –
CCCn1c(=O)c2[nH]c(-c3ccc(OCC(=O)NCc4ccccc4)cc3)nc2n(CCC)c1=O [Compound 13, 8-[4-[(Benzylcarbamoylmethyl)oxy]phenyl]-1,3-di-(n-propyl)-xanthine] | 79.2 ± 17.8 nM | – | – | 54.7 ± 21.2 nM | – | 268 °C | 5.02 ± 0.55 nM | Ki ([3]; read-out: rA2A Ki or IC50): 25.9 ± 7.6 nM; Ki ([5]; read-out: hA2A Ki or IC50): 23.8 ± 5.71 nM
CCCn1c(=O)c2[nH]c(-c3ccc(OCC(=O)N(Cc4ccccc4)Cc4ccccc4)cc3)nc2n(CCC)c1=O [Compound 15, 8-[4-[(Dibenzylcarbamoylmethyl)oxy]phenyl]-1,3-di-(n-propyl)-xanthine] | 284 ± 14 nM | 9.88 ± 1.05 nM | 2750 nM | 690 ± 98 nM | 642 ± 198 nM | 230 °C | 167 ± 49 nM | –
CCCn1c(=O)c2[nH]c(-c3ccc(OCC(=O)Nc4ccccc4C(C)=O)cc3)nc2n(CCC)c1=O [Compound 18, 8-[4-[((2-Acetylphenyl)carbamoylmethyl)oxy]phenyl]-1,3-di-(n-propyl)xanthine] | 61.9 ± 3.4 nM | 2.74 ± 1.01 nM | 434 ± 129 nM | 335 ± 64 nM | 431 ± 176 nM | 294 °C | 27.9 ± 1.6 nM | selectivity for human A2B versus human A1 receptors [2]: 120 fold; selectivity for human A2B versus human A2A receptors [2]: 160 fold; selectivity for human A2B versus human A3 receptors [2]: 23 fold; selectivity for human A2B versus rat A1 receptors [2]: 10 fold; selectivity for human A2B versus rat A2A receptors [2]: 160 fold
CCCn1c(=O)c2[nH]c(-c3ccc(OCC(=O)Nc4cccc(C(C)=O)c4)cc3)nc2n(CCC)c1=O [Compound 19, 8-[4-[((3-Acetylphenyl)carbamoylmethyl)oxy]phenyl]-1,3-di-(n-propyl)xanthine] | 352 ± 69 nM | 4.92 ± 0.55 nM | 949 ± 394 nM | 234 ± 28 nM | 58.9 ± 7.1 nM | 269 to 270 °C | 439 ± 111 nM | –
CCCn1c(=O)c2[nH]c(-c3ccc(OCC(=O)Nc4ccc([N+](=O)[O-])cc4)cc3)nc2n(CCC)c1=O [Compound 28, 8-[4-[((4-Nitro)phenylcarbamoylmethyl)oxy]phenyl]-1,3-di-(n-propyl)xanthine] | 138 ± 17.1 nM | – | 1180 nM | 57 ± 3.1 nM | 70 ± 10.7 nM | 307 °C | 13.1 ± 3.9 nM | selectivity for human A2B versus human A1 receptors [2]: 35 fold; Ki [2, 13]: 1.52 nM
CCCn1c(=O)c2[nH]c(-c3ccc(OCC(=O)NNC(C)=O)cc3)nc2n(CCC)c1=O [Compound 41, 8-[4-[(Carboxymethyl)oxy]phenyl]-1,3-di-(n-propyl)xanthine N-Acetylhydrazide] | – | – | – | – | – | – | – | Ki [1, 14]: 30.9 ± 8.2 nM; rA1/hA2B ([2]; Table 4): 0.10; Ki [2, 15]: 33.8 ± 13.7 nM; Ki [2, 16]: 65.4 ± 6.5 nM; Ki ([6]; Table 4, read-out: rA1 Ki): 6.51 ± 1.24 nM; Ki ([3]; Table 4, read-out: rA2A Ki): 227 ± 64 nM; Ki [4, 17]: 125 ± 14 nM; Ki [5, 18]: 186 ± 9 nM
CCCn1c(=O)[nH]c(=O)c2[nH]c(-c3ccc(OCC(=O)NN4C(=O)C(C)=C(C)C4=O)cc3)nc21 [Compound 48] | – | – | – | – | – | – | – | Ki [1, 14]: 14200 nM; rA1/hA2B ([2]; Table 4): 2.0; Ki [2, 15]: 1900 nM; Ki [2, 16]: 1800 nM; Ki ([6]; Table 4, read-out: rA1 Ki): 3590 ± 920 nM; rA2A % displacement of specific binding ([3]; Table 4, at 100,000 nM): 36 ± 4%; Ki [4, 17]: 8080 nM; Ki [5, 18]: 5480 nM
CCCn1c(=O)c2[nH]c(-c3ccc(OCC(=O)NN4C(=O)c5ccccc5C4=O)cc3)nc2n(CCC)c1=O [Compound 57, 8-[4-[(Carboxymethyl)oxy]phenyl]-1,3-di-(n-propyl)xanthine N,N-Phthaloylhydrazide] | – | – | – | – | – | – | – | Ki [1, 14]: 147 ± 21 nM; rA1/hA2B ([2]; Table 4): 0.41; Ki [2, 15]: 46.4 nM; Ki [2, 16]: 64.4 ± 0.8 nM; Ki ([6]; Table 4, read-out: rA1 Ki): 26.3 ± 2.3 nM; Ki ([3]; Table 4, read-out: rA2A Ki): 392 ± 117 nM; Ki [4, 17]: 210 nM; Ki [5, 18]: 359 nM

Further lines, with some results ahead:

Ki [1, 7] | Ki [2, 8] | Ki [3, 9] | Ki [4, 10] | Ki [5, 11] | melting point | Ki [6, 12] | SMILES | other results
363 ± 148 nM | 3.93 ± 1.35 nM | 541 ± 128 nM | 225 ± 9 nM | 3100 nM | > 310 °C | 38.4 ± 3.9 nM | CCCn1c(=O)c2[nH]c(-c3ccc(OCC(=O)Nc4ccc(C(=O)OC)cc4)cc3)nc2n(CCC)c1=O [Compound 21, 8-[4-[((4-Methoxycarbonyl)phenylcarbamoylmethyl)oxy]phenyl]-1,3-di-(n-propyl)xanthine] | –
213 ± 94 nM | – | 917 ± 258 nM | 61.2 ± 8.2 nM | 238 ± 28 nM | > 310 °C | 44.6 ± 6.5 nM | CCCn1c(=O)c2[nH]c(-c3ccc(OCC(=O)Nc4ccc(C(F)(F)F)cc4)cc3)nc2n(CCC)c1=O [Compound 29, 8-[4-[((4-Trifluoromethyl)phenylcarbamoylmethyl)oxy]phenyl]-1,3-di-(n-propyl)xanthine] | Ki [2, 13]: 2.14 nM
391 ± 147 nM | 2.22 ± 0.19 nM | 988 ± 518 nM | 17.9 ± 4.5 nM | 16.6 ± 3.6 nM | 298 °C | 2.72 ± 0.51 nM | CCCn1c(=O)c2[nH]c(-c3ccc(OCC(=O)Nc4ccc(F)cc4)cc3)nc2n(CCC)c1=O [Compound 30, 8-[4-[((4-Fluoro)phenylcarbamoylmethyl)oxy]phenyl]-1,3-di-(n-propyl)xanthine] | selectivity for human A2B versus rat A1 receptors [2]: 1 fold
– | – | – | – | – | 281 to 283 °C | – | CCCn1c(=O)c2[nH]c(-c3ccc(/C=C/C(=O)Nc4ccccc4C(C)=O)cc3)nc2n(CCC)c1=O [Compound 35, 8-[4(2-(2-Acetylphenyl)carbamoyl-trans-vinyl)phenyl]-1,3-di-(n-propyl)xanthine] | Ki ([1]; Table 3, read-out: hA3 Ki or IC50): 121 ± 138 nM; Ki ([2]; Table 3, read-out: hA2B Ki or IC50): 3.65 ± 0.98 nM; Ki ([6]; Table 3, read-out: rA1 Ki or IC50): 7.67 ± 2.2 nM; Ki ([3]; Table 3, read-out: rA2A Ki or IC50): 143 ± 50 nM
